US20150025077A1 (COYOTE PHARMACEUTICALS, INC., priority 2012, published 2015)

System: Rap1
Assay: Prenylation of Rap1 in Neuro2A cells, western blotting
Type: cell-based, mouse
Details: 100 nM; with GGTI-298; percentage of control (GGTI only)
Protocol: Mouse neuroblastoma Neuro2A cells were cultured in DMEM supplemented with 10% FBS for 24 hrs. The cells were treated with 102GGA derivative compounds for 24 hrs first before GGTase inhibitor GGTI-298 was added to the culture medium for additional 24 hr incubation. […] Both un-prenylated and total Rap1 protein bands were quantified using Image J and normalized to their respective loading control GAPDH. The results for control and each compound treatment were calculated as the ratio of normalized un-prenylated Rap1 to total Rap1, and averaged from two biological repeats of one experiment. The final results were presented as a percentage of the control treatments (GGTI only) from the same batch experiment. The data shown in the chart were averaged from two repeats of one experiment and presented as the ratio of normalized un-prenylated Rap1 to total Rapt Compound ID numbers in table refer to structures in Table 1 and Table 2.

| SMILES | unprenylated/total RAP1 (%) |
| --- | --- |
| CC(C)=CCC/C(C)=C/CC/C(C)=C/CC/C(C)=C/COC(=O)C1CCCCC1 [Compound 2f, 2E, 6E, 10E-Geranylgeranyl cyclohexanoate] | 65 |
| CCOC(=O)CCNC(=O)OC/C=C(\C)CC/C=C(\C)CC/C=C(\C)CCC=C(C)C [Compound 7m, Ethoxycarbonyl ethyl 2E, 6E, 10E-geranylgeranyl carbamate] | 54 |
| CCCCCCNC(=O)OC/C=C(\C)CC/C=C(\C)CCC=C(C)C [Compound 8i, Hexyl 2E, 6E-farnesyl carbamate] | 59 |
| CC(C)=CCC/C(C)=C/CC/C(C)=C/CC/C(C)=C/COC(=S)NC1CC2CCC1C2 (stereo not drawn) [Compound 10j, Exo-Norbornyl 2E,6E,10E-geranylgeranyl thiocarbamate] | 91 |
| CC(C)=CCC/C(C)=C/CC/C(C)=C/CC/C(C)=C/COC(=S)NCCN1CCOCC1 [Compound 10m, Morpholinyl-2′-ethyl 2E,6E,10E-geranylgeranyl thiocarbamate] | 100 |
| CCCCCNC(=O)OC(C)CC/C=C(\C)CC/C=C(\C)CCC=C(C)C (centres unmarked) [Compound 20d, n-Pentyl 5E, 9E-farnesyl prop-2-yl carbamate] | 67 |
| CC(C)=CCC/C(C)=C/CC/C(C)=C/CCC(C)OC(=O)NCC1CCCCC1 (centres unmarked) [Compound 20h, Cyclohexylmethyl 5E, 9E-farnesyl prop-2-yl carbamate] | 58 |
| CC(C)=CCC/C(C)=C/CC/C(C)=C/CC/C(C)=C/C1=N[C@@H](Cc2ccccc2)CO1 [Compound 27g, (S)-4-benzyl-2-((1E,5E,9E)-2,6,10,14-tetramethylpentadeca-1,5,9,13-tetraen-1-yl)-4,5-dihydrooxazole] | 129 |
| CC(C)=CCC/C(C)=C/CC/C(C)=C/CC/C(C)=C/C1=N[C@@H](CC(C)C)C(=O)O1 [Compound 37d, (S)-4-isobutyl-2-((1E,5E,9E)-2,6,10,14-tetramethylpentadeca-1,5,9,13-tetraen-1-yl)oxazol-5(4H)-one] | 128 |
| CC(=O)CC/C=C(\C)CC/C=C(\C)CCC=C(C)C [Compound 52] | 71 |
| CC(C)=CCC/C(C)=C/CC/C(C)=C/CC/C(C)=C/CC1CCCCC1=O (centres unmarked) [Compound 84] | 72 |
| CC/C(=C\CCC(=O)C12CC3CC(CC(C3)C1)C2)CC/C=C(\C)CC/C=C(\C)CCC=C(C)C [Compound 127] | 77 |
| CCC(=O)CC/C=C(\CC)CC/C=C(\C)CC/C=C(\C)CCC=C(C)C [Compound 128] | 67 |
| CCOC(=O)/C=C(\CC)CC/C=C(\C)CC/C=C(\C)CCC=C(C)C [Compound 131] | 61 |
| CC(=O)CC/C=C(\C)CC/C=C(\C)CC/C=C(\C)CC/C=C(\C)CCC=C(C)C [Compound 132] | 103 |

System: HSP70
Assay: HSP70 levels in Neuro 2a cells, ELISA
Type: cell-based, mouse
Details: 100 nM, 48 hrs compound then 24 hrs GGTI-298
Protocol: Mouse neuroblastoma 2a cells were cultured in DMEM with 10% FBS for 24 hrs. […] After 24 hrs cells were harvested and lysates were prepared and analyzed by ELISA for HSP70. Compound ID numbers in table refer to structures in Table 1 and Table 2.

| SMILES | HSP70 level, ELISA signal (absence of compounds normalized as 1.00) |
| --- | --- |
| CCOC(=O)CCNC(=O)OC/C=C(\C)CC/C=C(\C)CC/C=C(\C)CCC=C(C)C [Compound 7m, Ethoxycarbonyl ethyl 2E, 6E, 10E-geranylgeranyl carbamate] | 0.89 |
| CC(C)=CCC/C(C)=C/CC/C(C)=C/CC/C(C)=C/COC(=S)NC1CC2CCC1C2 (stereo not drawn) [Compound 10j, Exo-Norbornyl 2E,6E,10E-geranylgeranyl thiocarbamate] | 1.06 |
| CC(C)=CCC/C(C)=C/CC/C(C)=C/CC/C(C)=C/COC(=O)Nc1ccncc1 [Compound 39, (2E,6E,10E)-3,7,11,15-tetramethylhexadeca-2,6,10,14-tetraen-1-yl pyridin-4-ylcarbamate] | 1.15 |
| CC(C)=CCC/C(C)=C/CC/C(C)=C/CC/C(C)=C/COC(=O)N1CCN(C)CC1 [Compound 40a] | 0.99 |
| CC(C)=CCC/C(C)=C/CC/C(C)=C/CC/C(C)=C/COC(=O)Nc1ccccn1 [Compound 40b, (2E,6E,10E)-3,7,11,15-tetramethylhexadeca-2,6,10,14-tetraen-1-yl pyridin-2-ylcarbamate] | 0.92 |
| CC(C)=CCC/C(C)=C/CC/C(C)=C/CC/C(C)=C/CCC(=O)C(C)(C)C [Compound 60] | 0.89 |
| CCC(=O)CC/C=C(\C)CC/C=C(\C)CC/C=C(\C)CCC=C(C)C [Compound 61] | 0.98 |
| CCOC(=O)/C=C/C=C(\C)CC/C=C(\C)CC/C=C(\C)CCC=C(C)C [Compound 65] | 0.90 |
| CCOC(=O)C(C/C=C(\C)CC/C=C(\C)CC/C=C(\C)CCC=C(C)C)C(=O)c1ccoc1 (centres unmarked) [Compound 68] | 1.11 |
| CC(C)=CCC/C(C)=C/CC/C(C)=C/CC/C(C)=C/CCC(=O)c1ccoc1 [Compound 69] | 0.90 |
| CCCC(=O)C(C/C=C(\C)CC/C=C(\C)CC/C=C(\C)CCC=C(C)C)C(=O)OCC (centres unmarked) [Compound 70] | 1.07 |
| CCOC(=O)C(C/C=C(\C)CC/C=C(\C)CC/C=C(\C)CCC=C(C)C)C(=O)C12CC3CC(CC(C3)C1)C2 (centres unmarked) [Compound 71] | 1.03 |
| CCCC(=O)CC/C=C(\C)CC/C=C(\C)CC/C=C(\C)CCC=C(C)C [Compound 73] | 0.99 |
| CC(C)=CCC/C(C)=C/CC/C(C)=C/CC/C(C)=C/CCC(=O)C(C)C [Compound 74] | 1.08 |
| CCOC(=O)C1(C/C=C(\C)CC/C=C(\C)CC/C=C(\C)CCC=C(C)C)CCCCCC1=O (centres unmarked) [Compound 76] | 0.75 |
| CCOC(=O)C(C/C=C(\C)CC/C=C(\C)CC/C=C(\C)CCC=C(C)C)C(=O)C(C)C (centres unmarked) [Compound 77] | 1.03 |

| SMILES | HSP70 level, ELISA signal (absence of compounds normalized as 1.00) |
| --- | --- |
| CCOC(=O)C(C)(C/C=C(\C)CC/C=C(\C)CC/C=C(\C)CCC=C(C)C)C(C)=O (centres unmarked) [Compound 78] | 1.00 |
| CCOC(=O)C1(C/C=C(\C)CC/C=C(\C)CC/C=C(\C)CCC=C(C)C)CCCC1=O (centres unmarked) [Compound 79] | 0.98 |
| COCC(=O)C(C/C=C(\C)CC/C=C(\C)CC/C=C(\C)CCC=C(C)C)C(=O)OC (centres unmarked) [Compound 80] | 1.02 |
| COCCC(=O)C(C/C=C(\C)CC/C=C(\C)CC/C=C(\C)CCC=C(C)C)C(=O)OC (centres unmarked) [Compound 81] | 1.12 |
| CCOC(=O)C(C/C=C(\C)CC/C=C(\C)CC/C=C(\C)CCC=C(C)C)C(C)=O (centres unmarked) [Compound 87] | 0.95 |
| CC(=O)CC/C=C(\C)CCC=C1CCCCC1 [Compound 92] | 0.92 |
| CCOC(=O)C=C1CCCCC1 [Compound 93] | 0.87 |
| CC(C)=CCC/C(C)=C/CC/C(C)=C/CCC(=O)C(C)(C)C [Compound 100] | 1.14 |
| CCC(=O)CC/C=C(\C)CC/C=C(\C)CCC=C(C)C [Compound 102] | 1.04 |
| CON=C(C)CC/C=C(\C)CC/C=C(\C)CC/C=C(\C)CCC=C(C)C [Compound 104] | 0.90 |
| C=CCO/N=C(\C)CC/C=C(\C)CC/C=C(\C)CC/C=C(\C)CCC=C(C)C [Compound 109] | 1.12 |
| CC(C)=CCC/C(C)=C/CC/C(C)=C/CC/C(C)=C/CC/C(C)=N/OC1CCCCO1 (centres unmarked) [Compound 111] | 1.10 |
| CC(C)=CCC/C(C)=C/CC/C(C)=C/CC/C(C)=C/CC/C(C)=N/OCc1ccccc1 [Compound 113] | 1.01 |
| CCC(=CCCC(C)=O)CC/C=C(\C)CC/C=C(\C)CCC=C(C)C [Compound 117] | 1.08 |
| C=CCCC(=O)CC/C=C(\C)CC/C=C(\C)CC/C=C(\C)CCC=C(C)C [Compound 146] | 1.13 |
| CC(C)=CCC/C(C)=C/CC/C(C)=C/CC/C(C)=C/CC1CCCCCC1=O (centres unmarked) [Compound 147] | 0.94 |

Same assay, conditions: 10uM, 48 hrs compound then 24 hrs GGTI-298

| SMILES | HSP70 level, ELISA signal (absence of compounds normalized as 1.00) |
| --- | --- |
| CCCCCCNC(=O)OC/C=C(\C)CC/C=C(\C)CCC=C(C)C [Compound 8i, Hexyl 2E, 6E-farnesyl carbamate] | 0.97 |
| CC(C)=CCC/C(C)=C/CC/C(C)=C/CC/C(C)=C/COC(=S)NC1CC2CCC1C2 (stereo not drawn) [Compound 10j, Exo-Norbornyl 2E,6E,10E-geranylgeranyl thiocarbamate] | 1.08 |
| CC(C)=CCC/C(C)=C/CC/C(C)=C/CC/C(C)=C/COC(=S)NCCN1CCOCC1 [Compound 10m, Morpholinyl-2′-ethyl 2E,6E,10E-geranylgeranyl thiocarbamate] | 1.06 |
| CC(C)=CCC/C(C)=C/CC/C(C)=C/CC/C(C)=C/C1=N[C@@H](Cc2ccccc2)CO1 [Compound 27g, (S)-4-benzyl-2-((1E,5E,9E)-2,6,10,14-tetramethylpentadeca-1,5,9,13-tetraen-1-yl)-4,5-dihydrooxazole] | 1.11 |
| CC(C)=CCC/C(C)=C/CC/C(C)=C/CC/C(C)=C/C1=N[C@@H](CC(C)C)C(=O)O1 [Compound 37d, (S)-4-isobutyl-2-((1E,5E,9E)-2,6,10,14-tetramethylpentadeca-1,5,9,13-tetraen-1-yl)oxazol-5(4H)-one] | 1.04 |
| CNC(=O)OC/C=C(\C)CC/C=C(\C)CCC=C(C)C [Compound 42] | 1.25 |
